Laboratory results published in patent publication US8470844B2, “Imidazoacridinone derivative compounds and methods for their use” (Technion Research & Development Foundation Limited, priority 2008, dated 2013).
Substitutions are numbered along the chain they refer to.

What was measured:
A549/K1.5 cells = assay: MTT cytotoxicity assay, ABCG2-overexpressing A549/K1.5 cells; assay type: cell-based, Human
Procedure: (§1) Tissue culture: Human non-small cell lung cancer A549 cells and T-cell leukemia CCRF-CEM cells were grown under monolayer conditions or up to a maximal density of 10^6 cells/ml (for CCRF-CEM cells) in RPMI-1640 medium (GIBCO) supplemented with 10% fetal calf serum, 2 mM glutamine, 100 μg/ml penicillin and 100 μg/ml streptomycin (Biological Industries, Beth-Haemek, Israel) in a humid atmosphere of 5% CO2. Drug resistant A549/K1.5 cells with ABCG2 overexpression were maintained under a continuous drug selection with 1.5 μM C-1305. Bram, E. E., et al., (2007) Biochem Pharmacol 74(1), 41-53.
(§2) Cytotoxicity and growth inhibition assays: The cytotoxic activity of the various IA antitumor agents was determined using the MTT assay. Poindessous, V., et al., (2003) Clin Cancer Res 9(7), 2817-2825.
(§3) Exponentially growing cells were seeded at 5×10^3 cells/well in 24-well plates (2 ml medium/well). Following an overnight incubation, cells were exposed to different drug concentrations for 96 hours. Cellular viability was determined by adding the tetrazolium salt MTT for 4 h at 37° C., followed by solubilization of the intracellular precipitated formazan in 1 ml DMSO and absorbance was determined by a microplate reader (ASYS Hitech GmbH, Austria). Drug concentrations required to inhibit cell growth by 50% (IC50) compared with untreated controls were determined from the curves of survival versus drug concentrations using the SlideWrite software (Advanced Graphics Software, Inc., Encinitas, Calif.). Resistance folds (RF) were calculated by dividing the IC50 value of the resistant cells by that of the parental cell line. Values presented are means of at least three independent experiments, each performed in duplicates.
Quantitative evaluation of ABCG2 interaction with various IA derivatives: The extent of ABCG2-mediated resistance was expressed using the Resistance Fold (RF) parameter representing the ratio between the IC50 values of the resistant cells and parental cells. Likewise, ABCG2-dependent differential accumulation of IAs in ABCG2-overexpressing A549/K1.5 cells was compared using the ratio of IA accumulation in the presence or absence of the potent ABCG2 inhibitor FTC. This was termed the FTC-dependent Accumulation Fold (AF) and was determined for each IA at a constant IA concentration of 10 μM.

ABCG2 (A549/K1.5 cells) = biological target: T1, ABCG2 (A549/K1.5 cells) (Homo sapiens, UniProt Q9UNQ0); assay: Fluorescence microscopy of nuclear accumulation of IAs in A549/K1.5 cells; assay type: cell-based; conditions: 10 μM IA, 1 hr
T1 construct: Drug resistant A549/K1.5 cells with ABCG2 overexpression were maintained under a continuous drug selection with 1.5 μM C-1305; endogenous in cells; host or cells: A549/K1.5 (C-1305-selected subline of human non-small cell lung cancer A549)
T1 sequence (Q9UNQ0 1-655): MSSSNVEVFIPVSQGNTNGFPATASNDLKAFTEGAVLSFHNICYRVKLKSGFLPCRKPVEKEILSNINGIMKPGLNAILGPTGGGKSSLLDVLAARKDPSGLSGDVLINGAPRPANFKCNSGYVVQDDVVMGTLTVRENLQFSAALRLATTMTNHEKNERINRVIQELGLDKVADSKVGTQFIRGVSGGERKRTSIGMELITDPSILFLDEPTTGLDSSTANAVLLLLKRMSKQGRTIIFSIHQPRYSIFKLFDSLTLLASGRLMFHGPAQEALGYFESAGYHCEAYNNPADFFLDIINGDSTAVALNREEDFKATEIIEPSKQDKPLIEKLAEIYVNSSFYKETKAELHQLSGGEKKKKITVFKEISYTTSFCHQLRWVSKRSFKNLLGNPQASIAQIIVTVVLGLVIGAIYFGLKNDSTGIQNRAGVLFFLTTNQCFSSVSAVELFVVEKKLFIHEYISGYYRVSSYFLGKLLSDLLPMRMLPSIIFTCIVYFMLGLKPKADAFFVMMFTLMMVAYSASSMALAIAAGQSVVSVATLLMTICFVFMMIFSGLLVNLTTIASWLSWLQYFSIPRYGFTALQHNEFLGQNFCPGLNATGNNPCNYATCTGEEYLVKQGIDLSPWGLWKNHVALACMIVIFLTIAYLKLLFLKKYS
Procedure: In immunofluorescence microscopy of plasma membrane targeting of ABCG2 and nuclear accumulation of IAs, cells (1×10^4/well) were seeded in 24-well plates (1 ml medium/well) and incubated for 2 days, following which some wells were supplemented with 10 μM IA-containing medium±5 μM FTC and incubated for 1 h at 37° C. Cells were then washed twice with ice-cold PBS containing 0.1% BSA and blocked for 10 min at 4° C. with PBS containing 5% BSA. Cells were then washed once with ice-cold PBS containing 0.1% BSA and incubated for 30 min at 4° C. with a Phycoerythrin-conjugated, affinity-purified 5D3 mouse anti-human ABCG2 monoclonal antibody (1:100; eBioscience). Unspecific fluorescence was determined using cells that were incubated only with a secondary Phycoerythrin (PE)-conjugated goat anti-mouse IgG (1:200; Jackson Immunoresearch Labs, West Grove, Pa.). Cells were then washed twice and subjected to fluorescence microscopy using a DMIRE2 fluorescence microscope equipped with a DC300FX camera (Leica Microsystems, Wetzlar, Germany).
In order to exclude the possibility that differential subcellular accumulation of IA derivatives is the basis of the observed difference in cytotoxicity and cellular fluorescence, A549/K1.5 cells were incubated with 10 μM of selected IA derivatives from both group A and B in the presence or absence of FTC and subjected to fluorescence microscopy.

[1] = system: untransfected HEK293 cells; assay: Flow cytometric accumulation in untransfected HEK293 cells; assay type: cell-based, Human; conditions: ±5 μM FTC
Procedure: (§4) For cytotoxicity and accumulation experiments, cells were grown in drug-free medium for at least one week prior to the experiments. Human embryonic kidney cells (HEK293) and their stable transfectants overexpressing the R482, G482 and T482 ABCG2 were grown in the above RPMI-1640 medium supplemented with 2 mg/ml G-418. Bram, E. E., et al., (2006) Cancer Chemother Pharmacol 58(6), 826-834.
(§5) IA derivative and tetramethylrosamine (TMR) accumulation in parental HEK293 and their HEK293/ABCG2 R/G/T482 transfectants were carried out as described herein with the a slight amendment of using a single IA concentration of 1 μM ±FTC (5 μM) for the selected as well as 0.1 μM for TMR accumulation. Robey, R. W., et al., (2003) Br J Cancer 89(10), 1971-1978. Cellular fluorescence was determined using a FACSCalibur (BD Bioscience, San Jose, Calif. USA) flow cytometer. FL1-H excitation of IAs was at 488 nm and emission was collected at 525 nm, whereas FL2-H excitation of TMR was at […] and emission was collected at 574 nm. Flow cytometric results are presented as means±SD of 3 independent experiments.
(§6) Bram, E. E., et al., (2006) Cancer Chemother Pharmacol 58(6), 826-834.

A549 cells = assay: MTT cytotoxicity assay, parental A549 cells; assay type: cell-based, Human; conditions: 96 hours exposure, mean of at least three experiments
Procedure: as §1, §2, §3

wild type R482 ABCG2 = biological target: T2, wild type R482 ABCG2 (Homo sapiens, UniProt Q9UNQ0); assay: Flow cytometric accumulation in HEK293 transfectants, wild type R482 ABCG2; conditions: HEK293 wild type R482 ABCG2, 0.1 μM TMR, ±5 μM FTC
T2 sequence (Q9UNQ0 1-655): T1 sequence (Q9UNQ0 1-655)
Procedure: as §4, §5, §6

mutant T482 ABCG2 = biological target: T3, mutant T482 ABCG2 (Homo sapiens, UniProt Q9UNQ0, R482T); assay: Flow cytometric accumulation in HEK293 transfectants, mutant T482 ABCG2; conditions: HEK293 mutant T482 ABCG2, 0.1 μM TMR, ±5 μM FTC
T3 sequence (Q9UNQ0 1-655 R482T): T1 sequence (Q9UNQ0 1-655) with R482T
Procedure: as §4, §5, §6

mutant G482 ABCG2 = biological target: T4, mutant G482 ABCG2 (Homo sapiens, UniProt Q9UNQ0, R482G); assay: Flow cytometric accumulation in HEK293 transfectants, mutant G482 ABCG2; conditions: HEK293 mutant G482 ABCG2, 0.1 μM TMR, ±5 μM FTC
T4 sequence (Q9UNQ0 1-655 R482G): T1 sequence (Q9UNQ0 1-655) with R482G
Procedure: as §4, §5, §6

**Q.** For `CCN(CC)CCNc1ccc2nc(C)n3c4ccc(O)cc4c(=O)c1c23.Cl` [C-1310], which IC50 (A549/K1.5 cells; ABCG2-overexpressing A549/K1.5 cells, 96 hours exposure, MTT) is on record?
**A.** Its IC50 is 1.22 ± 0.07 µM.

**Q.** And the “RF (resistance fold)” value (A549/K1.5 cells; IC50 of A549/K1.5 cells divided by IC50 of parental A549 cells)?
**A.** Its value is 20.30.

**Q.** And the “resistance of A549/K1.5 cells (in words)” value (A549/K1.5 cells; versus parental A549 cells)?
**A.** The value was “prominent resistance”.

**Q.** And the “intracellular accumulation (fluorescence microscopy)” value (ABCG2 (A549/K1.5 cells); absence of FTC)?
**A.** Its value is “no apparent intracellular accumulation”.

**Q.** What about the “nuclear accumulation (fluorescence microscopy)” value (ABCG2 (A549/K1.5 cells); presence of 5 μM FTC) of the same molecule?
**A.** Its value is “marked restoration of nuclear accumulation”.

**Q.** What about the “efflux (in words)” value ([1]; 1 μM IA) of the same molecule?
**A.** The value was “not from untransfected HEK293 cells”.

**Q.** What about the IC50 (A549 cells) of the same molecule?
**A.** The IC50 was 0.06 ± 0.008 µM.

**Q.** `CN(C)c1ccc2c(-c3ccc(CCl)cc3)c3ccc(=[N+](C)C)cc-3oc2c1` [TMR, tetramethylrosamine] was tested. Which “AF (FTC inducible accumulation fold)” value (wild type R482 ABCG2) did it give?
**A.** The value was 1.4.

**Q.** What about the “AF (FTC inducible accumulation fold)” value (mutant T482 ABCG2) of the same molecule?
**A.** Its value is “marked AF”.

**Q.** And the “AF (FTC inducible accumulation fold)” value (mutant G482 ABCG2)?
**A.** Its value is “marked AF”.

**Q.** And the “AF (FTC inducible accumulation fold)” value ([1]; 0.1 μM TMR)?
**A.** Its value is 0.8 fold.
